Measured values: patent US11987588B2, “Modulators of the beta-3 adrenergic receptor useful for the treatment or prevention of heart failure and disorders related thereto” (Arena Pharmaceuticals, Inc., priority 2017, dated 2024)
pIC50: −log10 of the molar value.

molecular target: Beta-3 Adrenergic Receptor (Homo sapiens (Human), UniProt P13945); assay: Homogeneous Time-Resolved Fluorescence (HTRF) cAMP antagonist assay, IC50 determination; format: cell-based; conditions: CHO-K1 cells stably expressing recombinant receptor, isoproterenol at EC90
In short: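 Antagonist mode: isoproterenol at its predetermined EC90 added after compound to recombinant CHO-K1 cells in IBMX-containing PBS, 1 h, room temperature. Compounds tested as 5-fold, 10-point dilutions, top final typically 10 or 100 μM. HTRF signal converted to cAMP via standard curve, giving IC50.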

Beta-3 Adrenergic Receptor, sequence (P13945 whole entry, species assumed): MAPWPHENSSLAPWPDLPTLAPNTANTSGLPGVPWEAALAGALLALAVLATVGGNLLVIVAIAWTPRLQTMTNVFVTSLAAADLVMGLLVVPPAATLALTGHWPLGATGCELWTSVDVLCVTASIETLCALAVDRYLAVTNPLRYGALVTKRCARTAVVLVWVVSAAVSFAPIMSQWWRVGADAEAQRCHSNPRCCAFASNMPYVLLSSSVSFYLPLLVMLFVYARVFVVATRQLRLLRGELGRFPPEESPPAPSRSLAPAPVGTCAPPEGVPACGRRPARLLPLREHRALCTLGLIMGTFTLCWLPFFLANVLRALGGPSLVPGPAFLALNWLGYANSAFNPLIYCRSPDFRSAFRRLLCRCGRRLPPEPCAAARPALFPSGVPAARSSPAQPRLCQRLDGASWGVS

`NS(=O)(=O)c1cccc(OC[C@@H](O)CN[C@H]2COC3(CCN(S(=O)(=O)c4c[nH]c5ccc(F)cc5c4=O)CC3)C2)c1` [Compound 552, 3-((S)-3-((R)-8-(6-fluoro-4-oxo-1,4-dihydroquinolin-3-ylsulfonyl)-1-oxa-8-azaspiro[4.5]decan-3-ylamino)-2-hydroxypropoxy)benzenesulfonamide] and `NS(=O)(=O)c1cccc(OC[C@@H](O)CN[C@H]2COC3(CCN(S(=O)(=O)c4c[nH]c5cc(F)ccc5c4=O)CC3)C2)c1` [Compound 555, 3-((S)-3-((R)-8-(7-fluoro-4-oxo-1,4-dihydroquinolin-3-ylsulfonyl)-1-oxa-8-azaspiro[4.5]decan-3-ylamino)-2-hydroxypropoxy)benzenesulfonamide] are within 0.2 log units of each other in pIC50: 7.75 for the first, 7.67 for the second.

`Cc1cccc2c(=O)c(S(=O)(=O)N3CCC4(CC3)C[C@@H](NC[C@H](O)COc3cccc(S(N)(=O)=O)c3)CO4)c[nH]c12` [Compound 553, 3-((S)-2-hydroxy-3-((R)-8-(8-methyl-4-oxo-1,4-dihydroquinolin-3-ylsulfonyl)-1-oxa-8-azaspiro[4.5]decan-3-ylamino)propoxy)benzenesulfonamide] and `NS(=O)(=O)c1cccc(OC[C@@H](O)CN[C@H]2COC3(CCN(S(=O)(=O)c4c[nH]c5c(F)cccc5c4=O)CC3)C2)c1` [Compound 554, 3-((S)-3-((R)-8-(8-fluoro-4-oxo-1,4-dihydroquinolin-3-ylsulfonyl)-1-oxa-8-azaspiro[4.5]decan-3-ylamino)-2-hydroxypropoxy)benzenesulfonamide] are within 0.2 log units of each other in pIC50: 7.63 for the first, 7.46 for the second.

`NS(=O)(=O)c1cccc(OC[C@@H](O)CN[C@H]2COC3(CCN(S(=O)(=O)c4ccc5c(c4)CCCC5)CC3)C2)c1` [Compound 556, 3-((S)-2-hydroxy-3-((R)-8-(5,6,7,8-tetrahydronaphthalen-2-ylsulfonyl)-1-oxa-8-azaspiro[4.5]decan-3-ylamino)propoxy)benzenesulfonamide] and `NS(=O)(=O)c1cccc(OC[C@@H](O)CN[C@H]2COC3(CCN(S(=O)(=O)c4ccc5c(c4)CCCO5)CC3)C2)c1` [Compound 565, 3-((S)-3-((R)-8-(chroman-6-ylsulfonyl)-1-oxa-8-azaspiro[4.5]decan-3-ylamino)-2-hydroxypropoxy)benzenesulfonamide] are within 0.2 log units of each other in pIC50: 7.31 for the first, 7.29 for the second.

Going from `CCn1cc(S(=O)(=O)N2CCC3(CC2)C[C@@H](NC[C@H](O)COc2cccc(S(N)(=O)=O)c2)CO3)c(=O)c2ccc(C)cc21` [Compound 557, 3-((S)-3-((R)-8-(1-ethyl-7-methyl-4-oxo-1,4-dihydroquinolin-3-ylsulfonyl)-1-oxa-8-azaspiro[4.5]decan-3-ylamino)-2-hydroxypropoxy)benzenesulfonamide] to `Cc1c[nH]c2ncc(S(=O)(=O)N3CCC4(CC3)C[C@@H](NC[C@H](O)COc3cccc(S(N)(=O)=O)c3)CO4)cc12` [Compound 558, 3-((S)-2-hydroxy-3-((R)-8-(3-methyl-1H-pyrrolo[2,3-b]pyridin-5-ylsulfonyl)-1-oxa-8-azaspiro[4.5]decan-3-ylamino)propoxy)benzenesulfonamide], the pIC50 rises from 7.08 to 7.87 (0.79 log units). The second is the more potent here.

`Cc1nc2cc(S(=O)(=O)N3CCC4(CC3)C[C@@H](NC[C@H](O)COc3cccc(S(N)(=O)=O)c3)CO4)cnc2[nH]1` [Compound 559, 3-((S)-2-hydroxy-3-((R)-8-(2-methyl-3H-imidazo[4,5-b]pyridin-6-ylsulfonyl)-1-oxa-8-azaspiro[4.5]decan-3-ylamino)propoxy)benzenesulfonamide] and `Cc1n[nH]c2ncc(S(=O)(=O)N3CCC4(CC3)C[C@@H](NC[C@H](O)COc3cccc(S(N)(=O)=O)c3)CO4)cc12` [Compound 564, 3-((S)-2-hydroxy-3-((R)-8-(3-methyl-1H-pyrazolo[3,4-b]pyridin-5-ylsulfonyl)-1-oxa-8-azaspiro[4.5]decan-3-ylamino)propoxy)benzenesulfonamide] are within 0.2 log units of each other in pIC50: 7.46 for the first, 7.57 for the second.

`NS(=O)(=O)c1cccc(OC[C@@H](O)CN[C@H]2COC3(CCN(S(=O)(=O)c4ccc5ccccc5c4)CC3)C2)c1` [Compound 560, 3-((S)-2-hydroxy-3-((R)-8-(naphthalen-2-ylsulfonyl)-1-oxa-8-azaspiro[4.5]decan-3-ylamino)propoxy)benzenesulfonamide] and `NS(=O)(=O)c1cccc(OC[C@@H](O)CN[C@H]2COC3(CCN(S(=O)(=O)c4cnc5ccccc5c4)CC3)C2)c1` [Compound 562, 3-((S)-2-hydroxy-3-((R)-8-(quinolin-3-ylsulfonyl)-1-oxa-8-azaspiro[4.5]decan-3-ylamino)propoxy)benzenesulfonamide] are within 0.2 log units of each other in pIC50: 7.72 for the first, 7.79 for the second.

`CNS(=O)(=O)c1cccc(OC[C@@H](O)CN[C@H]2COC3(CCN(c4ccccn4)CC3)C2)c1` [Compound 561, 3-((S)-2-hydroxy-3-((R)-8-(pyridin-2-yl)-1-oxa-8-azaspiro[4.5]decan-3-ylamino)propoxy)-N-methylbenzenesulfonamide] and `CNS(=O)(=O)c1cccc(OC[C@@H](O)CN[C@H]2COC3(CCN(c4ncccn4)CC3)C2)c1` [Compound 576, 3-((S)-2-hydroxy-3-((R)-8-(pyrimidin-2-yl)-1-oxa-8-azaspiro[4.5]decan-3-ylamino)propoxy)-N-methylbenzenesulfonamide] are within 0.2 log units of each other in pIC50: 6.37 for the first, 6.28 for the second.

Going from `NS(=O)(=O)c1cccc(OC[C@@H](O)CN[C@@H]2COC3(CCN(S(=O)(=O)c4cnc5cc[nH]c5c4)CC3)C2)c1` [Compound 563, 3-((S)-3-((S)-8-(1H-pyrrolo[3,2-b]pyridin-6-ylsulfonyl)-1-oxa-8-azaspiro[4.5]decan-3-ylamino)-2-hydroxypropoxy)benzenesulfonamide] to `NS(=O)(=O)c1cccc(OC[C@@H](O)CN[C@H]2COC3(CCN(S(=O)(=O)c4ccc5ncccc5c4)CC3)C2)c1` [Compound 566, 3-((S)-2-hydroxy-3-((R)-8-(quinolin-6-ylsulfonyl)-1-oxa-8-azaspiro[4.5]decan-3-ylamino)propoxy)benzenesulfonamide], the pIC50 falls from 7.58 to 7.10 (0.48 log units). The first is the more potent here.

Compared with `CCOc1ccc(-c2ccc(CN)cc2)cc1S(=O)(=O)N1CCC2(CC1)C[C@@H](NC[C@H](O)COc1cccc(S(N)(=O)=O)c1)CO2` [Compound 567, 3-((S)-3-((R)-8-(4′-(aminomethyl)-4-ethoxybiphenyl-3-ylsulfonyl)-1-oxa-8-azaspiro[4.5]decan-3-ylamino)-2-hydroxypropoxy)benzenesulfonamide], `CNS(=O)(=O)c1cccc(OC[C@@H](O)CN[C@H]2COC3(CCN(c4nccc(-c5ccccc5)n4)CC3)C2)c1` [Compound 572, 3-((S)-2-hydroxy-3-((R)-8-(4-phenylpyrimidin-2-yl)-1-oxa-8-azaspiro[4.5]decan-3-ylamino)propoxy)-N-methylbenzenesulfonamide] is 0.57 log units lower in pIC50: 7.75 for the first, 7.18 for the second.

Going from `CNS(=O)(=O)c1cccc(OC[C@@H](O)CN[C@H]2COC3(CCN(c4nccc(OC)n4)CC3)C2)c1` [Compound 568, 3-((S)-2-hydroxy-3-((R)-8-(4-methoxypyrimidin-2-yl)-1-oxa-8-azaspiro[4.5]decan-3-ylamino)propoxy)-N-methylbenzenesulfonamide] to `CNS(=O)(=O)c1cccc(OC[C@@H](O)CN[C@H]2COC3(CCN(c4nccc(C)n4)CC3)C2)c1` [Compound 575, 3-((S)-2-hydroxy-3-((R)-8-(4-methylpyrimidin-2-yl)-1-oxa-8-azaspiro[4.5]decan-3-ylamino)propoxy)-N-methylbenzenesulfonamide], the pIC50 rises from 6.39 to 6.67 (0.28 log units).

`CNS(=O)(=O)c1cccc(OC[C@@H](O)CN[C@H]2COC3(CCN(c4nccc(N)n4)CC3)C2)c1` [Compound 569, 3-((S)-3-((R)-8-(4-aminopyrimidin-2-yl)-1-oxa-8-azaspiro[4.5]decan-3-ylamino)-2-hydroxypropoxy)-N-methylbenzenesulfonamide] and `CNS(=O)(=O)c1cccc(OC[C@@H](O)CN[C@H]2COC3(CCN(c4nccc(C(F)(F)F)n4)CC3)C2)c1` [Compound 574, 3-((S)-2-hydroxy-3-((R)-8-(4-(trifluoromethyl)pyrimidin-2-yl)-1-oxa-8-azaspiro[4.5]decan-3-ylamino)propoxy)-N-methylbenzenesulfonamide] are within 0.2 log units of each other in pIC50: 6.37 for the first, 6.22 for the second.

`CNS(=O)(=O)c1cccc(OC[C@@H](O)CN[C@H]2COC3(CCN(c4ncc(Cc5ccccc5)cn4)CC3)C2)c1` [Compound 570, 3-((S)-3-((R)-8-(5-benzylpyrimidin-2-yl)-1-oxa-8-azaspiro[4.5]decan-3-ylamino)-2-hydroxypropoxy)-N-methylbenzenesulfonamide] and `CNS(=O)(=O)c1cccc(OC[C@@H](O)CN[C@H]2COC3(CCN(c4nccc(Cc5ccccc5)n4)CC3)C2)c1` [Compound 573, 3-((S)-3-((R)-8-(4-benzylpyrimidin-2-yl)-1-oxa-8-azaspiro[4.5]decan-3-ylamino)-2-hydroxypropoxy)-N-methylbenzenesulfonamide] are within 0.2 log units of each other in pIC50: 6.84 for the first, 6.94 for the second.

`CCc1cnc(N2CCC3(CC2)C[C@@H](NC[C@H](O)COc2cccc(S(=O)(=O)NC)c2)CO3)nc1` [Compound 571, 3-((S)-3-((R)-8-(5-ethylpyrimidin-2-yl)-1-oxa-8-azaspiro[4.5]decan-3-ylamino)-2-hydroxypropoxy)-N-methylbenzenesulfonamide] and `CCCc1cnc(N2CCC3(CC2)C[C@@H](NC[C@H](O)COc2cccc(S(=O)(=O)NC)c2)CO3)nc1` [Compound 579, 3-((S)-2-hydroxy-3-((R)-8-(5-propylpyrimidin-2-yl)-1-oxa-8-azaspiro[4.5]decan-3-ylamino)propoxy)-N-methylbenzenesulfonamide] are within 0.2 log units of each other in pIC50: 6.63 for the first, 6.47 for the second.

First: CNS(=O)(=O)c1cccc(OC[C@@H](O)CN[C@H]2COC3(CCN(c4nc(C)cc(C)n4)CC3)C2)c1 [Compound 577, 3-((S)-3-((R)-8-(4,6-dimethylpyrimidin-2-yl)-1-oxa-8-azaspiro[4.5]decan-3-ylamino)-2-hydroxypropoxy)-N-methylbenzenesulfonamide]
Second: CCCCCCCc1cnc(N2CCC3(CC2)C[C@@H](NC[C@H](O)COc2cccc(S(=O)(=O)NC)c2)CO3)nc1 [Compound 578, 3-((S)-3-((R)-8-(5-heptylpyrimidin-2-yl)-1-oxa-8-azaspiro[4.5]decan-3-ylamino)-2-hydroxypropoxy)-N-methylbenzenesulfonamide]
The pIC50 of the first is 0.62 log units higher: 6.99 for the first, 6.37 for the second.
